This passage reports melting point results from patent US20150223456A1, “PESTICIDAL COMPOUNDS” (SYNGENTA PARTICIPATIONS AG, priority 2011, published 2015).

Structures are written as SMILES.

In the case of `O=C(NCC1(c2ccc(Cl)nc2Cl)CC1)c1cccnc1Cl` [A.122, 2-Chloro-N-[1-(2,6-dichloro-pyridin-3-yl)-cyclopropylmethyl]nicotinamide], the melting point (in general, the temperature of the solid-liquid transition) fell in the range of 206 to 207 °C.
